Laboratory results as given in US10047050B2, “3,4-di-substituted pyridine compound, methods of using and compositions comprising the same” (ARDEA BIOSCIENCES, INC., priority 2011, dated 2018).
Values joined by “and” are separate entries in the source; they are usually repeats but may differ in a detail not shown here. Equal values may be shown once.

System: serum uric acid
Assay: Single-dose Phase I clinical trial, serum uric acid (sUA) 0-72 hours post-dose
Assay type: in vivo, human
Details: for Absolute sUA concentration, Mean (3-8) / % sUA reduction (from baseline), Mean (3-8) / % sUA change (from baseline), Mean (3-8): mean of subjects 3-8; for % sUA reduction (from baseline) / % sUA change (from baseline): individual subjects 3-8
Procedure: A Phase 1, Randomized, Double-Blind, Placebo-Controlled Study to Evaluate Safety, Tolerability, Pharmacokinetics and Preliminary Food Effect of Single Doses of a URAT1 Inhibitor, in Healthy Adult Male Volunteers.
To assess safety, tolerability, pharmacokinetics and uricosuric effects after oral administration as single doses of a tablet formulation and the effect of food on bioavailability.
Subjects receive a single, oral dose of active or placebo, at the following doses:
Group 4: 20 mg (fasted) [sentinel dosing];
48 subjects in 6 dose groups, 8 subjects/group, are randomized 3:1 to receive active (6/group) or placebo (2/group). All study procedures are the same regardless of whether subject receives active or placebo. The total duration of subject participation, including screening period, is ˜2-4 weeks, and the total volume of blood collected from each subject during the entire study <500 mL, (less than typically collected during a volunteer blood donation).
5 mg and 20 mg, active and placebo, tablets packaged in 35 count HDPE bottles, stored at controlled room temperature (15-30° C.). Placebo tablets are designed to match the active tablets—identical size, form, taste, and color, and containing the same excipients. 2 mg was dosed as an oral solution.
Subjects dosed on the morning of Day 1 with ˜240 mL of room temp water.
Fasted: subjects are dosed after overnight fast >10 hours and remain fasted until >4 hours post-dose.
Fed: subjects fast overnight for >10 hours, then are dosed 30 mins after completing standard moderate fat breakfast (no high fructose corn syrup).
Serum samples are collected at:
PD samples are frozen (−20° C.) and stored; all samples from a given subject assayed in a single analytical run.

[1] = Group 3, 5 mg single oral dose, fed, 54 h post-dose
[2] = Group 3, 5 mg single oral dose, fed, 60 h post-dose
[3] = Group 3, 5 mg single oral dose, fed, 72 h post-dose
[4] = Group 4, 20 mg single oral dose, fasted, 0 h (baseline)
[5] = Group 4, 20 mg single oral dose, fasted, 6 h post-dose
[6] = Group 4, 20 mg single oral dose, fasted, 12 h post-dose
[7] = Group 4, 20 mg single oral dose, fasted, 24 h post-dose
[8] = Group 4, 20 mg single oral dose, fasted, 30 h post-dose
[9] = Group 4, 20 mg single oral dose, fasted, 36 h post-dose
[10] = Group 4, 20 mg single oral dose, fasted, 48 h post-dose
[11] = Group 4, 20 mg single oral dose, fasted, 54 h post-dose
[12] = Group 4, 20 mg single oral dose, fasted, 60 h post-dose
[13] = Group 4, 20 mg single oral dose, fasted, 72 h post-dose
[14] = Group 5, 20 mg single oral dose, fed, 0 h (baseline)
[15] = Group 5, 20 mg single oral dose, fed, 6 h post-dose
[16] = Group 5, 20 mg single oral dose, fed, 12 h post-dose
[17] = Group 5, 20 mg single oral dose, fed, 24 h post-dose
[18] = Group 5, 20 mg single oral dose, fed, 30 h post-dose
[19] = Group 5, 20 mg single oral dose, fed, 36 h post-dose
[20] = Group 5, 20 mg single oral dose, fed, 48 h post-dose
[21] = Group 5, 20 mg single oral dose, fed, 54 h post-dose
[22] = Group 5, 20 mg single oral dose, fed, 60 h post-dose
[23] = Group 5, 20 mg single oral dose, fed, 72 h post-dose
[24] = Group 6, 40 mg single oral dose, fasted, 0 h (baseline)
[25] = Group 6, 40 mg single oral dose, fasted, 6 h post-dose
[26] = Group 6, 40 mg single oral dose, fasted, 12 h post-dose
[27] = Group 6, 40 mg single oral dose, fasted, 24 h post-dose
[28] = Group 6, 40 mg single oral dose, fasted, 30 h post-dose
[29] = Group 6, 40 mg single oral dose, fasted, 36 h post-dose
[30] = Group 6, 40 mg single oral dose, fasted, 48 h post-dose
[31] = Group 6, 40 mg single oral dose, fasted, 54 h post-dose
[32] = Group 6, 40 mg single oral dose, fasted, 60 h post-dose
[33] = Group 6, 40 mg single oral dose, fasted, 72 h post-dose

CC(C)(Sc1ccncc1-c1ccc(C#N)c2ccccc12)C(=O)O [2-((3-(4-cyanonaphthalen-1-yl)pyridin-4-yl)thio)-2-methylpropanoic acid]
Absolute sUA concentration, Mean (3-8) (Group 3, 5 mg single oral dose, fed, 48 h post-dose): 4.5 mg/dL
% sUA reduction (from baseline) [1]: −37.7% and −47.0% and −27.7% and −38.3% and −21.1% and −32.5%
% sUA reduction (from baseline), Mean (3-8) [1]: −34.1%
Absolute sUA concentration, Mean (3-8) [1]: 3.9 mg/dL
% sUA reduction (from baseline) [2]: −27.5% and −28.8% and −30.8% and −20.0% and −24.6% and −35.0%
% sUA reduction (from baseline), Mean (3-8) [2]: −27.8%
Absolute sUA concentration, Mean (3-8) [2]: 4.3 mg/dL
% sUA reduction (from baseline) [3]: −14.5% and −18.2% and −20.0% and −11.7% and −15.8% and −25.0%
% sUA reduction (from baseline), Mean (3-8) [3]: −17.5%
Absolute sUA concentration, Mean (3-8) [3]: 4.9 mg/dL
% sUA reduction (from baseline), Mean (3-8) [4]: 0%
Absolute sUA concentration, Mean (3-8) [4]: 6.8 mg/dL
% sUA reduction (from baseline), Mean (3-8) [5]: −37.1%
Absolute sUA concentration, Mean (3-8) [5]: 4.3 mg/dL
% sUA reduction (from baseline), Mean (3-8) [6]: −41.2%
Absolute sUA concentration, Mean (3-8) [6]: 4.0 mg/dL
% sUA reduction (from baseline), Mean (3-8) [7]: −43.1%
Absolute sUA concentration, Mean (3-8) [7]: 3.8 mg/dL
% sUA reduction (from baseline), Mean (3-8) [8]: −47.4%
Absolute sUA concentration, Mean (3-8) [8]: 3.6 mg/dL
% sUA reduction (from baseline), Mean (3-8) [9]: −48.4%
Absolute sUA concentration, Mean (3-8) [9]: 3.5 mg/dL
% sUA reduction (from baseline), Mean (3-8) [10]: −39.0%
Absolute sUA concentration, Mean (3-8) [10]: 4.1 mg/dL
% sUA reduction (from baseline), Mean (3-8) [11]: −37.6%
Absolute sUA concentration, Mean (3-8) [11]: 4.2 mg/dL
% sUA reduction (from baseline), Mean (3-8) [12]: −37.6%
Absolute sUA concentration, Mean (3-8) [12]: 4.2 mg/dL
% sUA reduction (from baseline), Mean (3-8) [13]: −21.5%
Absolute sUA concentration, Mean (3-8) [13]: 5.3 mg/dL
% sUA reduction (from baseline), Mean (3-8) [14]: 0%
Absolute sUA concentration, Mean (3-8) [14]: 7.1 mg/dL
% sUA reduction (from baseline), Mean (3-8) [15]: −44.6%
Absolute sUA concentration, Mean (3-8) [15]: 3.9 mg/dL
% sUA reduction (from baseline), Mean (3-8) [16]: −56.5%
Absolute sUA concentration, Mean (3-8) [16]: 3.1 mg/dL
% sUA reduction (from baseline), Mean (3-8) [17]: −46.1%
Absolute sUA concentration, Mean (3-8) [17]: 3.8 mg/dL
% sUA reduction (from baseline), Mean (3-8) [18]: −48%
Absolute sUA concentration, Mean (3-8) [18]: 3.7 mg/dL
% sUA reduction (from baseline), Mean (3-8) [19]: −49.9%
Absolute sUA concentration, Mean (3-8) [19]: 3.5 mg/dL
% sUA reduction (from baseline), Mean (3-8) [20]: −37.6%
Absolute sUA concentration, Mean (3-8) [20]: 4.4 mg/dL
% sUA reduction (from baseline), Mean (3-8) [21]: −38.8%
Absolute sUA concentration, Mean (3-8) [21]: 4.3 mg/dL
% sUA reduction (from baseline), Mean (3-8) [22]: −40.3%
Absolute sUA concentration, Mean (3-8) [22]: 4.2 mg/dL
% sUA reduction (from baseline), Mean (3-8) [23]: −28.6%
Absolute sUA concentration, Mean (3-8) [23]: 5.0 mg/dL
% sUA change (from baseline) [24]: 0%
% sUA change (from baseline), Mean (3-8) [24]: 0%
Absolute sUA concentration, Mean (3-8) [24]: 6.6 mg/dL
% sUA change (from baseline) [25]: −23.7% and −51.4% and −38.2% and −54.1% and −49.2% and −42.1%
% sUA change (from baseline), Mean (3-8) [25]: −43.1%
Absolute sUA concentration, Mean (3-8) [25]: 3.8 mg/dL
% sUA change (from baseline) [26]: −40.8% and −68.9% and −52.9% and −63.9%
% sUA change (from baseline), Mean (3-8) [26]: −59.3%
Absolute sUA concentration, Mean (3-8) [26]: 2.7 mg/dL
% sUA change (from baseline), Mean (3-8) [27]: −57.6%
Absolute sUA concentration, Mean (3-8) [27]: 2.8 mg/dL
% sUA change (from baseline), Mean (3-8) [28]: −60.6%
Absolute sUA concentration, Mean (3-8) [28]: 2.6 mg/dL
% sUA change (from baseline), Mean (3-8) [29]: −61.4%
Absolute sUA concentration, Mean (3-8) [29]: 2.5 mg/dL
% sUA change (from baseline) [30]: −53.9% and −50.0% and −48.5% and −37.7% and −55.9% and −45.6%
% sUA change (from baseline), Mean (3-8) [30]: −48.6%
Absolute sUA concentration, Mean (3-8) [30]: 3.4 mg/dL
% sUA change (from baseline) [31]: −56.6% and −47.3% and −50.0% and −39.3% and −54.2% and −40.4%
% sUA change (from baseline), Mean (3-8) [31]: −48.0%
Absolute sUA concentration, Mean (3-8) [31]: 3.4 mg/dL
% sUA change (from baseline) [32]: −56.6% and −50.0% and −48.5% and −39.3% and −52.5% and −36.8%
% sUA change (from baseline), Mean (3-8) [32]: −47.3%
Absolute sUA concentration, Mean (3-8) [32]: 3.4 mg/dL
% sUA change (from baseline) [33]: −40.8% and −31.1% and −33.8% and −19.7% and −30.5% and −19.3%
% sUA change (from baseline), Mean (3-8) [33]: −29.2%
Absolute sUA concentration, Mean (3-8) [33]: 4.6 mg/dL
